The values below come from PMC4678293, “Identification of a lead like inhibitor of the hepatitis C virus non-structural NS2 autoprotease” (Antiviral Research, 2015).

The subject of series [1] is SGR-feo-NS2-5B(Con1) sub-genomic replicon, genotype 1b. In words: luciferase assay in Huh7.5 cells stably harbouring SGR-feo-NS2-5B(Con1). It is filed as cell-based, Hepatitis C virus. The settings on record: 10 μM, Huh7.5 stable cells, p = 0.0006. As for the experimental part:
(§1) Selection and maintenance of Huh7.5 cells stably harbouring SGR-feo-NS3-5B ([Wyles et al., 2009], [Wyles et al., 2007]) or SGR-feo-NS2-5B derived from JFH-1 (genotype 2a) and Con1 (genotype 1b) has previously been reported ([Shaw et al., 2015]). Cells were maintained in Dulbecco's modified Eagle's medium (DMEM) supplemented with 10% FBS, 100 IU penicillin ml^−1, 100 μg streptomycin ml^−1, 1% non-essential amino acids and 300 μg/ml G418 in a humidified incubator at 37 °C in 5% CO2. For screening, 2 × 10^4 cells/well were seeded in a 96-well plate in the absence of G418 and compounds were added to 10 μM final concentration by dilution from DMSO stocks. At 72 h, cells were washed in PBS and lysed in 30 μl/well Passive Lysis Buffer (PLB: Promega). Luciferase activity was quantified by automated addition of 40 μl LarI reagent (Promega) and light emission recorded over 6 s using a BMG Labtech Fluostar plate reader. Statistical significance was determined using the Student's t test.
(§2) Additionally, compounds were tested for the ability to specifically perturb NS2-dependent HCV genome replication in a cell-based assay. Compounds were tested against cells stably harbouring a HCV sub-genomic replicon (SGR) comprising either NS2-5B or NS3-5B with a firefly luciferase-neomycin phosphotransferase reporter ([Shaw et al., 2015], [Wyles et al., 2009], [Wyles et al., 2007]). […]

Series [2] can be described thus: cell viability by MTT in Huh7.5 cells electroporated with Jc1-NLuc. The conditions noted are these: human, Jc1-NLuc electroporated Huh7.5, 48 h.p.e. It is filed as cell-based. Here is the method: (§3) For cytotoxicity assay, media was removed and cells were incubated in 1 mM thiazolyl blue tetrazolium bromide (MTT) for >2 h. MTT crystals were resuspended in 100 μl DMSO and absorbance at 570 nm quantified using an infinite F50 plate reader (Tecan). Alternatively, cytotoxicity was analysed using the ATPLite kit following the manufacturer's instructions, with light emission quantified using a BMG Labtech Fluostar plate reader.
(§4) For HCVcc experiments, 5 μg of Jc1-NLuc ([Amako et al., 2015]) transcript was electroporated into Huh7.5 cells and treated with compound as described in Section 2.5. Cytotoxicity or NanoLuc (NLuc) activity was measured at 48 h incubation with compound. Cells were lysed as in Section 2.4. Following the addition of 50 μl/well Nano-Glo Luciferase Assay Substrate (Promega) light emission was recorded using a BMG Labtech Fluostar plate reader and data analysed as in Section 2.5.

Series [3] has as its system Huh7.5 cells. Described as above. It is filed as cell-based. The settings on record: Jc1-NLuc electroporated Huh7.5, 48 h.p.e.; read-out: Cell viability, MTT CC50, individual experiment. Here is the method: as §3, §4
The subject of series [4] is Jc1-NLuc (genotype 2a chimeric Jc1, infectious HCV). In words: HCVcc assay: Jc1-NLuc RNA electroporated into Huh7.5 cells, NanoLuc activity. It is filed as cell-based, Hepatitis C virus. As for the experimental part: as §4
For series [5], the target named is T1, NS2 autoprotease (NS2-NS3-FLAG, JFH-1 isolate, genotype 2a) (Hepatitis C virus genotype 2a, UniProt Q99IB8).
T1 construct: made in house
Kind of series: in vitro NS2 autoprotease assay: recombinant NS2-NS3-FLAG proteolysis, NS3-FLAG product quantified by western blot. The conditions noted are these: 16 h. It is filed as biochemical. As for the experimental part:
NS2-NS3-FLAG (JFH-1 isolate, genotype 2a) was purified, and proteolysis reactions were performed as previously described ([Shaw et al., 2015]). Compounds were added to reactions prior to addition of NS2-NS3-FLAG by dilution from DMSO stocks (final DMSO 0.75%). Reactions were incubated at room temperature for 16 h, terminated by addition of Laemmli buffer and the NS3-FLAG proteolysis product quantified by western blot using M2 anti-FLAG monoclonal antibody (Sigma Aldrich) and IRDye 680RD Donkey anti-Mouse (LI-COR Biosciences) on an Odyssey imager (LI-COR). NS3-FLAG was normalised to DMSO control and a non-linear regression fitted with Prism 6 (GraphPad) to determine 50% effective concentration (EC50).
Firstly, compounds were tested for the ability to block production of a substrate product of the NS2 autoprotease in an in vitro assay. This assay, using a recombinant NS2-NS3-FLAG precursor purified under denaturing conditions, measured NS2 autoprotease activity using quantitative western blot to monitor a proteolysis product (NS3-FLAG) ([Foster et al., 2010], [Shaw et al., 2015], [Tedbury and Harris, 2007]).

In another series the test system is NS5A. Kind of series: western blot for NS5A in lysates of SGR-luc-NS2-5B(JFH-1) electroporated Huh7.5 cells. It is filed as cell-based, Hepatitis C virus. The settings on record: 52 h.p.e. Here is the method: 2 × 10^6 cells were seeded in a 10 cm dish and incubated as indicated. Cells were washed in PBS and lysed in 100 μl PLB. Clarified lysates were analysed by 15% SDS-PAGE and western blot. Anti-GAPDH (Abcam) (1:20,000) or anti-NS5A ([Macdonald et al., 2003]) (1:5000) were followed by IRDye 680RD Donkey anti-Mouse or IRDye 800CW Donkey anti-Rabbit (LI-COR BioSciences) (1:10,000) respectively. Imaging was performed using an Odyssey Imager (LI-COR).
In general terms: In western blotting, separated proteins are transferred to a membrane and probed.

Series [6] deals with Huh7.5 cells. In words: cytotoxicity at 25 μM in Huh7.5 cells, MTT or ATPlite assay. The conditions noted are these: 48 h. It is filed as cell-based. As for the experimental part: as §3
Background: Tetrazolium assays rely on reduction of a dye to a coloured formazan, in cell work by metabolically active cells.

Series [7] is described as follows: cell viability by MTT in Huh7.5 cells electroporated with SGR-luc-NS2-5B(JFH-1). It is filed as cell-based. The settings on record: human, Huh7.5 cells electroporated with SGR-luc-NS2-5B(JFH-1); for CC50 at 48 h: MTT, Huh7.5, 48 h.p.e., Fig. 2D, read-out: Cell viability CC50, across experimental repeats. Here is the method:
as §3
(§5) Firefly luciferase was measured as in Section 2.4. Data was normalised to DMSO controls and EC50/CC50 determined using Prism 6 (GraphPad).

Series [8] relates to Huh7.5 cells. Described as above. It is filed as cell-based. The conditions noted are these: for CC50: MTT, Huh7.5, 48 h.p.e., single experiments in duplicate, read-out: Cell viability CC50, individual experiment. As for the experimental part: as §3, §5
A short description of series [9]: cell viability by ATPLite in SGR-feo-NS2-5B(JFH-1) harbouring Huh7.5 cells. The conditions noted are these: human, Huh7.5 cells harbouring SGR-feo-NS2-5B(JFH-1) replicon. It is filed as cell-based. As for the experimental part:
as §3, §5

For series [10], the system named is SGR-luc-NS2-5B(JFH-1) sub-genomic replicon. In words: transient replication assay: SGR-luc-NS2-5B(JFH-1) RNA electroporated into Huh7.5 cells, luciferase. It is filed as cell-based, Hepatitis C virus. Here is the method: For transient SGR experiments, in vitro transcripts (2 μg) of firefly luciferase-containing SGR were electroporated into 4 × 10^6 Huh7.5 cells ([Blight et al., 2002]) or Huh7 cells at 950 μF and 270 V. 2 × 10^4 cells/well were seeded in a 96 well plate. At 4 h post electroporation (h.p.e.) media was replaced with media containing compounds.
as §5

Series [11] relates to SGR-feo-NS2-5B(JFH-1) sub-genomic replicon. In words: luciferase assay in Huh7.5 cells stably harbouring SGR-feo-NS2-5B(JFH-1). It is filed as cell-based, Hepatitis C virus. The settings on record: Huh7.5, 48 h. Here is the method:
as §1, §5
Additionally, compounds were tested for the ability to specifically perturb NS2-dependent HCV genome replication in a cell-based assay. […]

Series [12] concerns SGR-feo-NS3-5B(Con1) sub-genomic replicon. Kind of series: luciferase assay in Huh7.5 cells stably harbouring SGR-feo-NS3-5B(Con1), independent of NS2. The conditions noted are these: 10 μM, Huh7.5 stable cells. It is filed as cell-based, Hepatitis C virus. Here is the method:
as §1, §2

[13] abbreviates: 10-point dose response, in vitro proteolysis, * mean ± SD of three experimental repeats, read-out: JFH1 NS2-3 EC50.
Setting [14] is: Hepatitis C virus, Huh7.5, transient SGR-luc-NS2-5B(JFH-1), Huh7.5, 4-48 h.p.e., Fig. 2D, read-out: NS2-5B SGR EC50, mean ± SD across experimental repeats.
Setting [15] is: transient SGR-luc-NS2-5B(JFH-1), Huh7.5, 48 h.p.e., single experiments in duplicate, read-out: NS2-5B SGR EC50, individual experiment.

Values joined by “and” are separate entries in the source; they are usually repeats but may differ in a detail not shown here. Equal entries are not always repeated. “Also recorded” adds a separate entry of the source. Where two headings read alike, the source gives them in different places.

T1 sequence (Q99IB8 908-1210): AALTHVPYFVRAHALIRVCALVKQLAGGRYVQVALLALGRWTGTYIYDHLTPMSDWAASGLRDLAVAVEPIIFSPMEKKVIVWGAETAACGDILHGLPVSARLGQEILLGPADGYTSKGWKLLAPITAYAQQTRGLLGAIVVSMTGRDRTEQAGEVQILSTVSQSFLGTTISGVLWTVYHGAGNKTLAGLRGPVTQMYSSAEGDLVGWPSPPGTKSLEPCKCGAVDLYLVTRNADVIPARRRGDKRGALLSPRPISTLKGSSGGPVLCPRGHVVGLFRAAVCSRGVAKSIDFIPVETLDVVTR

In the case of `CC1(C(=O)N2CCC3(CC2)c2ccccc2[C@@H](N)[C@@H]3O)CCCCC1` [Compound 160, (2R, 3R)-3-amino-1′-[(1-methylcyclohexyl)carbonyl]-2,3,dihydrospiro[indene-1,4′-piperidine]-2-ol], the “luciferase activity relative to DMSO control, SGR-feo-NS2-5B(Con1)” value in series [1] is reported as “significantly reduced; also recorded: reduces luciferase activity”. For the same molecule, the CC50 – broadly, the concentration at which the toxic effect on the cells reaches its halfway point – at 48 h is 110 ± 40 µM in series [2] (mean ± SD of three experiments, read-out: Cell viability, MTT CC50, mean); 93 µM in series [2] (read-out: Cell viability, MTT CC50, individual experiment); above 100 µM in [7]; above 100 µM in series [9]. Moreover, the CC50 was 81.2 µM and 155 µM with Huh7.5 cells [3]; above 100 µM in the series on Huh7.5 cells [8]. Further, the EC50 in [4] (Hepatitis C virus, Huh7.5, read-out: Jc1-NLuc EC50, mean, Huh7.5, treated 4 to 48 h.p.e., mean ± SD of three experiments) was 17.3 ± 8.1 µM; in [4] (read-out: Jc1-NLuc EC50, individual experiment, Huh7.5, 48 h.p.e., three biological replicates) it was 24.4 µM and 18.9 µM and 8.54 µM; in [5] (setting [13]), 44.6 ± 6.2 µM; in series [5] (Fig. 1B dose response, read-out: EC50, reduction of NS3-FLAG product in the in vitro NS2 autoprotease assay), 39 µM; in series [10] (setting [14]) it was 12 ± 6.4 µM; in series [10] (setting [15]), 20.2 µM and 13.6 µM and 5.65 µM and 8.46 µM. In addition, the EC50 came to 43.4 µM in [11] (Hepatitis C virus, read-out: ff Luc EC50, SGR-feo-NS2-5B(JFH-1) stable cells, Huh7.5, 48 h, one representative experiment) and 43.4 µM in series [11] (read-out: ff Luc EC50, SGR-feo-NS2-5B(JFH-1) stable cells, one representative experiment). Further, the “NS5A relative to DMSO control, western blot” value with NS5A (160 at 25 μM) was “comparable reduction in NS5A”. Also, the “cytotoxicity at 25 μM” value in the series on Huh7.5 cells [6] is given as “no observed cytotoxicity”. Further, the viability at 300 µM in series [7] (300 μM, read-out: cell viability at maximal attainable concentration) worked out at 40%. The “concentration at which modest cytotoxic effects were observed” value in the series on Huh7.5 cells [8] was at least 95 µM. Besides, the “luciferase activity time course relative to DMSO control” value in series [10] (160 at 25 μM, added 4 h.p.e., read every 4 h for 48 h) was “reduction in luciferase activity and a lag in detectable luciferase activity”. Further, the selectivity index in [10] (CC50/EC50, transient SGR, no accurate CC50) is above 5. Also, the “luciferase activity relative to DMSO control, SGR-feo-NS3-5B(Con1)” value in series [12] is “no effect; also recorded: without affecting luciferase activity”.

For the molecule `O=C(C1CCCCC1)N1CCC2(C=Cc3ccccc32)CC1` [160–2, 1’-[(Cyclohexyl)carbonyl]-spiro[indene-1,4’-piperidine]], the melting point (as a rule, the temperature, or range, at which the solid turns liquid) lay within 134 to 135 °C. Also, the EC50 in [5] (setting [13]) is 68.4 ± 5.6 µM.

On to `CCC[C@H](NC(=O)[C@@H]1[C@H]2CCC[C@H]2CN1C(=O)[C@@H](NC(=O)[C@@H](NC(=O)c1cnccn1)C1CCCCC1)C(C)(C)C)C(=O)C(=O)NC1CC1` [Telaprevir, reference compound], for which the “NS5A relative to DMSO control, western blot” value in the series with NS5A (Telaprevir at 100 nM) is on record as “comparable reduction in NS5A”. For the same molecule, the CC50 at 48 h in [7] is above 31.6 µM. In addition, in the series on Huh7.5 cells [8], the CC50 was above 31.6 µM. Moreover, the EC50 is 0.206 µM in series [10] (Hepatitis C virus, Huh7.5, 48 h, transient SGR-luc-NS2-5B(JFH-1), Huh7.5, 48 h.p.e., single experiments in duplicate, read-out: NS2-5B SGR EC50, individual experiment); 0.176 ± 0.023 µM in series [10] (setting [14]); 0.146 µM in series [10] (setting [15]). For the same molecule, the “luciferase activity time course” value in series [10] (Telaprevir at 100 nM, compared with 160 at 25 μM) was “comparable profile”.

On to `CC1(C(=O)N2CCC3(C=Cc4ccccc43)CC2)CCCCC1` [160–1, 1-[(1-Methylcyclohexyl)carbonyl]-spiro[indene-1,4’-piperidine]], for which the EC50 in [5] (setting [13]) was found to be 43 ± 0.5 µM.
